Source: paper PMC6342556 (ACS chemical neuroscience, 2018)

Target: serotonin transporter (hSERT) (Homo sapiens, UniProt P31645)
Test: fluorometric uptake
Assay type: cell-based

Chain of serotonin transporter (hSERT) (P31645 whole entry): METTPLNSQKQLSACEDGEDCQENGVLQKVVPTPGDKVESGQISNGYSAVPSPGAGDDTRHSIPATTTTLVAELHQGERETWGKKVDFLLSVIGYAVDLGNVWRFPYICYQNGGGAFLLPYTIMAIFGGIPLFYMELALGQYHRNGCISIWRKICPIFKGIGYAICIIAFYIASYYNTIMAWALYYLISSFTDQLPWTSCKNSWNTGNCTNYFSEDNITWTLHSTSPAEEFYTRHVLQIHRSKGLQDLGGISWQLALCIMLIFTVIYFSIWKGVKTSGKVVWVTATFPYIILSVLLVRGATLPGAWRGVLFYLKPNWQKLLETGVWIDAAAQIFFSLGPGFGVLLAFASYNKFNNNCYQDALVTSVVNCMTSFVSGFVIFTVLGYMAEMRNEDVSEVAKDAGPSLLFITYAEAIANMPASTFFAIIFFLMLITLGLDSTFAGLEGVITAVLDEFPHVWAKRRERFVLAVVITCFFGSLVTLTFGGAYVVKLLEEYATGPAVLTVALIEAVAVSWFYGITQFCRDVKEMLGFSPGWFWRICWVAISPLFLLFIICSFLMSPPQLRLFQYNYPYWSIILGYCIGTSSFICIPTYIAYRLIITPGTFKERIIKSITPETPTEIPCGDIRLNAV

`NCCc1ccc2[nH]c3ccccc3c(=O)c2c1` [FFN54] was tested, and the “fluorometric uptake (5 μM) in hSERT-HEK cells with and without imipramine; S/B =” value was “FFN54 showed hSERT-dependent cell uptake in a multi-well fluorometric assay using hSERT-transfected human kidney cells”.
